# Molecular target: T1, LsaA (Enterococcus faecalis, UniProt Q7WT47)
# T1 construct: gene lsa
# Conditions: 1 uM LsaA, 1 mM ATP, 1 uM lincomycin; indirect read-out
# T1 sequence (Q7WT47 entry or part of it): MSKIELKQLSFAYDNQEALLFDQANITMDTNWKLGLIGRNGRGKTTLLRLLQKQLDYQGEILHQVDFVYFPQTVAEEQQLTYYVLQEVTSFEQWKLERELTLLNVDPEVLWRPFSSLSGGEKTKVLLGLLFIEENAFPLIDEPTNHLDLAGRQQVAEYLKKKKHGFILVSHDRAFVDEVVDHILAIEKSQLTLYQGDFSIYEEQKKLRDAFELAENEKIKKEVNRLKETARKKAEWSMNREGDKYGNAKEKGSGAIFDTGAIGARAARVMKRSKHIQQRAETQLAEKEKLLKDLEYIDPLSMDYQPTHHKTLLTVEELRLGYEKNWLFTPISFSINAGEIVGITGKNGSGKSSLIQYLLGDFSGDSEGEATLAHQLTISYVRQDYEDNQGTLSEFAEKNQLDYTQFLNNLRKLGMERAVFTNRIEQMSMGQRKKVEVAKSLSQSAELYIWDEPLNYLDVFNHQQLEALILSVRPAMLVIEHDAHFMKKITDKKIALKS
structure (smiles),measurement,value
Nc1ncnc2c1ncn2[C@@H]1O[C@H](COP(=O)(O)OP(=O)(O)OP(=O)(O)O)[C@@H](O)[C@H]1O [ATP],ATP-dependent rescue of puromycin reaction of lincomycin-inhibited E. faecalis 7,in the absence of ATP LsaA has no effect
